Entries after “also recorded” stand apart in the source; their conditions may differ.
What was measured:
Format in all cases: cell-based, human
[1] = test system: distant metastatic subclones; assay: Glucose-dependent oxidative stress analysis (viable cell counts), distant metastatic subclones; conditions: 1 mM H2O2, 24h, glucose not present in the media
Description: (§1) Tissue samples and cell lines were previously collected from PDAC patients by rapid autopsy, sequenced-validated, and monitored for mycoplasma as previously described. Low passage (2-17) rapid autopsy cell lines were cultured at 37° C. in DMEM with 10% fetal bovine serum (FBS, Gibco). For MTT assays, 15,000 cells/well were plated into 96 well plates in triplicate, treated 12 hours later, and assayed after 24 hr (glucose responses) or 6 days (chemotherapy) with CellTiter96 (Promega). For glucose response assays, nutrient-deplete DMEM (no glucose, glutamine, pyruvate, or serum) was used with addition of glucose as indicated. For glucose-dependent oxidative stress analysis, cells plated in triplicate and grown to 80% confluence followed by incubation in nutrient-deplete DMEM containing 10% dialyzed FBS with or without 10 mM glucose and 1 mM H2O2 for 24 hours. Cells were then washed with PBS, trypsinized, and viable cells counted with a hemocytometer. Glucose uptake and lactate secretion were measured with a YSI 7100 Bioanalyzer as described in the supplementary methods. For ^13C-1,2 glucose tracing and steady state metabolite profiling, the Q Exactive MS (QE-MS; Thermo Scientific) coupled to liquid chromatography (LC Ultimate 3000 UHPLC) was used for metabolite separation and detection as previously described. Detailed conditions are provided in the supplementary methods.

normal HPDE cells = assay: Glucose-dependent oxidative stress analysis (viable cell counts), HPDE; conditions: 1 mM H2O2, 24h, with or without 10 mM glucose
Description: as §1

A38Lg compared to A38Per = assay: MTT cell viability assay
Description: as §1

[2] = test system: local-regional PDAC samples; assay: Glucose-dependent oxidative stress analysis (viable cell counts), local-regional PDAC; conditions: 1 mM H2O2, 24h, with or without 10 mM glucose
Description: as §1

[3] = test system: global chromatin modifications in peritoneal subclone (A38Per), normal cells (HPDE, fibroblast) and local-regional PDACs; assay: Western blots of histone modifications, peritoneal subclone, normal cells and local-regional PDACs; conditions: peritoneal subclone
Description: Histones were acid extracted as described and western blots performed on 3.5 ug histones, which were checked by Ponceau stains prior to western blot to ensure equal loading. Densitometry was performed with ImageJ software. RNA was extracted with Trizol reagent (Life Technologies) and isopropanol precipitated. Genomic DNA was purified with MasterPure DNA extraction reagents (Epicenter). Immunohistochemistry, H&E staining, and immunofluorescence on formalin-fixed, paraffin-embedded (FFPE) tissue microarray sections (TMAs) were performed according to standard procedures.
RNAi experiments were performed with siRNA transfections (Oligofectamine, Life Technologies) using negative control siRNA (Sigma, SIC001) and pre-designed siRNA oligonucleotides against indicated genes in parallel (Sigma, PGD: SASI_Hs02 00334150, CDH2: SASI_Hs01_00153995, TOP2B: SASI_Hs02_00311874). siRNAs against mutant KRAS^G12V (CUACGCCAACAGCUCCAAC) (SEQ ID NO:1) were custom designed. Cells were incubated with siRNAs for 4 days after transfection and harvested. For drug treatments in 2-D, cells were grown to 70-80% confluency and treated for 3 days with 250 uM 6AN or DMSO negative control.

| Compound | normalized cell counts after H2O2 [1] | normalized cell counts after H2O2 (normal HPDE cells) | cell viability (MTT) under H2O2-mediated oxidative stress (A38Lg compared to A38Per) | normalized cell counts after H2O2 [2] | cell viability (MTT) under gemcitabine (A38Lg compared to A38Per; assayed after 6 days) | induction of loss of methylation or gain of acetylation (reprogrammed histone modifications) by chemotherapy [3] |
| --- | --- | --- | --- | --- | --- | --- |
| OO [H2O2] | sensitive to H2O2 when glucose was not present | sensitive to H2O2 under either glucose condition | highly resistant; also recorded: remarkably resistant | resistant to H2O2 irrespective of glucose availability |  |  |
| Nc1ccn([C@@H]2O[C@H](CO)[C@@H](O)C2(F)F)c(=O)n1 [gemcitabine, Gemcitabine] |  |  |  |  | highly resistant; also recorded: completely resistant | did not induce |

Source: patent US11795510B2, “Identification of epigenomic reprogramming in cancer and uses thereof” (The Johns Hopkins University, priority 2016, dated 2023)
